The target in assay [1] is Histone Deacetylase 4 (HDAC4) catalytic domain (Homo sapiens (Human), UniProt P56524). Put plainly: Biochemical HDAC inhibition assay, fluorogenic substrate Boc-Lys(Tfa)-AMC. How it is done:
The potency of compounds is quantified by measuring the Histone Deacetylase 4 (HDAC4) catalytic domain enzymatic activity using the fluorogenic substrate, Boc-Lys(Tfa)-AMC. The substrate is deacetylated to Boc-Lys-AMC by HDAC4. Cleavage by trypsin results in the release of the fluorophore AMC from the deacetylated substrate. The fluorescence of the sample is directly related to the histone deacetylase activity in the sample.
Stocks of 60 μL aliquots of the 10 mM compound in DMSO are prepared and stored at −20° C. From one stock aliquot of each compound to be tested and the reference compound, a 16-point serial dilution is prepared according to Table 1 using a 125 μL 16-channel Matrix multi-channel pipette (Matrix Technologies Ltd).
2 μL (200×) of each diluted solution and each control (full activity: 100% DMSO alone or full inhibition 1 mM) is stamped into V-bottomed polypropylene 384-well compound plates using either the Bravo (384-well head from Agilent) or 12.5 μL 16-channel Matrix multi-channel pipette (Matrix Technologies Ltd). Each well with the 200× compound solution is diluted 1:20 by the addition of 38 μL assay buffer+DMSO (10.5% DMSO, 45 mM Tris-HCl, 123 mM NaCl, 2.4 mM KCl, and 0.9 mM MgCl2 at pH 8.0 and equilibrated to room temperature).
The HDAC4 catalytic domain enzyme is human catalytic domain HDAC4 protein (amino acids 648-1032) with a C-terminal 6× histidine tag, produced by BioFocus. A working solution of enzyme is prepared from a 500 μg/mL stock aliquot of HDAC4 catalytic domain (thawed on ice) diluted to 0.2 μg/mL with assay buffer (50 mM Tris-HCl, 137 mM NaCl, 2.7 mM KCl, and 1 mM MgCl2 at pH 8 and equilibrated to room temperature) just prior to the addition of the enzyme to the assay.
5× (50 μM) substrate is prepared just prior to the addition to the assay. A 1 mM substrate stock is made by diluting a 100 mM Boc-Lys(Tfa)-AMC in DMSO solution 1:100 by adding it drop-wise to assay buffer (equilibrated to room temperature) while vortexing at slow speed to prevent precipitation. The 5× substrate is prepared by diluting the 1 mM substrate solution 1:20 by adding it drop-wise to assay buffer (equilibrated to room temperature) while vortexing at slow speed to prevent precipitation.
3× (30 μM) Developer/Stop Solution is prepared just prior to addition to the plate by diluting a stock solution of 10 mM reference compound 1:333 in 25 mg/mL trypsin (PAA Laboratories Ltd.) equilibrated to room temperature.
5 μL of each solution of 1:20 diluted compound from above is transferred to a clear bottomed, black, 384-well assay plate using the Bravo or the Janus (384-well MDT head from Perkin Elmer). Using a 16-channel Matrix multi-channel pipette, 35 μL of the working solution of HDAC4 catalytic domain enzyme (0.2 μg/mL in assay buffer) is transferred to the assay plate. […] The assay plate is then shaken for two minutes on an orbital shaker at 900 rpm (rotations per minute). Next the plate is incubated for 15 minutes at 37° C. The reaction is stopped by adding 25 μL of 3× (30 μM) developer/stop solution to the assay plates using either the Bravo, Janus or a 16-channel Matrix multi-channel pipette. Assay plates are then shaken for 5 minutes on an orbital shaker at 1200 rpm. Next, the assay plates are incubated at 37° C. for 1 hour in a tissue culture incubator. Finally, the fluorescence is measured (Excitation: 355 nm, Emission: 460 nm) using PerkinElmer EnVision in top read mode.

For assay [2], the system named is cellular histone deacetylase activity (Lys-Ac). Put plainly: Inhibition of cellular HDAC activity (Cell Lys-Ac). The assay is classed as cell-based. The conditions noted are these: Lys-Ac substrate.
Assay [3] concerns cellular histone deacetylase enzymatic activity in Jurkat E6-1 cells. Put plainly: Inhibition of cellular HDAC activity, Boc-Lys(Tfa)-AMC substrate (Cell Lys-TFA). It counts as cell-based. The procedure, abridged:
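Jurkat E6-1 cells (75,000/well) were treated with a 16-point compound dilution for 2 h at 37 °C, then exposed to Boc-Lys(Tfa)-AMC for 3 h. Lysis buffer containing trypsin was added overnight (15-16 h), and AMC fluorescence was read at Ex 355/Em 460 nm.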

The mark [4] stands for this setting: Homo sapiens, Jurkat E6.1, Lys-TFA substrate.

The values that follow come from patent US10065948B2, “Histone deacetylase inhibitors and compositions and methods of use thereof” (CHDI Foundation, Inc., priority 2014, dated 2018).

Sequence of Histone Deacetylase 4 (HDAC4) catalytic domain (P56524 648-1032): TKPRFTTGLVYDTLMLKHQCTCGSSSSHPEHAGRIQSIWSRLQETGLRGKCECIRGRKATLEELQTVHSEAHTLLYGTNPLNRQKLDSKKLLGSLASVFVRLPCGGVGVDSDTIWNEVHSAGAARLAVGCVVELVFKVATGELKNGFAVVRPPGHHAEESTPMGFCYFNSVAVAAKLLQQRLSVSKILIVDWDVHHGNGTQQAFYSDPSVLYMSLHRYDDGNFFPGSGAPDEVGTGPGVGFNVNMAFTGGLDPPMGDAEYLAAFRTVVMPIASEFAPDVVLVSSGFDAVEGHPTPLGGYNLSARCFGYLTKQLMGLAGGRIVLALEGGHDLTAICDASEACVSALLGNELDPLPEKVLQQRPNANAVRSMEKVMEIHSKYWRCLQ

`Cc1c(F)cccc1[C@]1(C(=O)NO)Cc2cnn(-c3ccc(F)cc3F)c2C1` [Example 17, (S)-1-(2,4-Difluorophenyl)-5-(3-fluoro-2-methylphenyl)-N-hydroxy-1,4,5,6-tetrahydrocyclopenta[c]pyrazole-5-carboxamide]: the results for the concentration for half-maximal inhibition (IC50) in assay [1], in assay [2] and in assay [3] (setting [4]) were 29 nM, more than 50000 nM and 39 nM, respectively.

Take `Cc1cc(F)ccc1-c1nc2c(s1)CC(C(=O)NO)(c1cccc(F)c1C)C2` (single isomer, unassigned) [Example 74, E1-(abs)-5-(3-Fluoro-2-methylphenyl)-2-(4-fluoro-2-methylphenyl)-N-hydroxy-5,6-dihydro-4H-cyclopenta[d]thiazole-5-carboxamide]: the IC50 was 780 nM in assay [1], more than 50000 nM in assay [2] and 540 nM in assay [3] (Lys-TFA substrate).

Take `Cc1c(F)cccc1C1(C(=O)NO)Cc2nc(-c3cnn(C)c3C)sc2C1` (single isomer, unassigned) [Example 76, E1-(abs)-2-(1,5-Dimethyl-1H-pyrazol-4-yl)-5-(3-fluoro-2-methylphenyl)-N-hydroxy-5,6-dihydro-4H-cyclopenta[d]thiazole-5-carboxamide]: the values for the IC50 in assay [1], in assay [2] and in assay [3] (Lys-TFA substrate) were 68 nM, more than 50000 nM and 36 nM, respectively.

`Cc1c(F)cccc1C1(C(=O)NO)CCc2c(cnn2-c2ccccc2)C1` (single isomer, unassigned) [Example 32, E2-(abs)-5-(3-fluoro-2-methylphenyl)-N-hydroxy-1-phenyl-4,5,6,7-tetrahydro-1H-indazole-5-carboxamide]: the IC50 in assay [1] is 17300 nM; in assay [2], more than 50000 nM; in assay [3] (Lys-TFA substrate), 2900 nM.

For `Cc1c(F)cccc1C1(C(=O)NO)Cc2nc(Cc3cccc(C(F)(F)F)c3)sc2C1` (stereo not drawn) [Example 63, 5-(3-Fluoro-2-methylphenyl)-N-hydroxy-2-(3-(trifluoromethyl)benzyl)-5,6-dihydro-4H-cyclopenta[d]thiazole-5-carboxamide], the IC50 in assay [1] is 490 nM; in assay [2] it was more than 50000 nM; in assay [3] (setting [4]), 38 nM.

With `Cc1c(F)cccc1C1(C(=O)NO)Cc2nc(-c3ccccc3F)sc2C1` (single isomer, unassigned) [Example 61, E1-(abs)-5-(3-Fluoro-2-methylphenyl)-2-(2-fluorophenyl)-N-hydroxy-5,6-dihydro-4H-cyclopenta[d]thiazole-5-carboxamide], the IC50 in assay [1] is 480 nM; in assay [2], more than 50000 nM; in assay [3] (Lys-TFA substrate) it was 120 nM.

In the case of `Cc1c(F)cccc1[C@]1(C(=O)NO)Cc2nc(-c3ccnn3C)sc2C1` [Example 68, (S)-5-(3-Fluoro-2-methylphenyl)-N-hydroxy-2-(1-methyl-1H-pyrazol-5-yl)-5,6-dihydro-4H-cyclopenta[d]thiazole-5-carboxamide], the figures for the IC50 in assay [1], in assay [2] and in assay [3] (setting [4]) were 240 nM, more than 50000 nM and 120 nM, respectively.

With `Cc1c(F)cccc1[C@]1(C(=O)NO)Cc2cnn(Cc3ccccc3)c2C1` [Example 92, (S)-1-Benzyl-5-(3-fluoro-2-methylphenyl)-N-hydroxy-1,4,5,6-tetrahydrocyclopenta[c]pyrazole-5-carboxamide], the IC50 in assay [1] was 48 nM; in assay [2] it was more than 50000 nM; in assay [3] (setting [4]), 27 nM.

As for `Cc1cc(-c2nc3c(s2)C[C@@](C(=O)NO)(c2cccc(F)c2C)C3)n(C)n1` [Example 70, (R)-2-(1,3-Dimethyl-1H-pyrazol-5-yl)-5-(3-fluoro-2-methylphenyl)-N-hydroxy-5,6-dihydro-4H-cyclopenta[d]thiazole-5-carboxamide], the figures for the IC50 in assay [1], in assay [2] and in assay [3] (setting [4]) were 122 nM, more than 50000 nM and 79 nM, respectively.

As to `Cc1cccc(-n2cc3c(n2)C[C@](C(=O)NO)(c2cccc(F)c2C)C3)c1` [Example 25, (S)-5-(3-fluoro-2-methylphenyl)-N-hydroxy-2-(m-tolyl)-2,4,5,6-tetrahydrocyclopenta[c]pyrazole-5-carboxamide], the results for the IC50 in assay [1], in assay [2] and in assay [3] (setting [4]) were 76 nM, more than 50000 nM and 160 nM, respectively.

Consider `Cc1c(F)cccc1[C@]1(C(=O)NO)Cc2cnn(-c3ccccc3F)c2C1` [Example 3, (S)-5-(3-Fluoro-2-methylphenyl)-1-(2-fluorophenyl)-N-hydroxy-1,4,5,6-tetrahydrocyclopenta[c]pyrazole-5-carboxamide], for which the IC50 in assay [1] was 17 nM; in assay [2], more than 50000 nM; in assay [3] (setting [4]), 33 nM.

On to `Cc1c(F)cccc1C1(C(=O)NO)CCc2ncsc2C1` (stereo not drawn) [Example 44, 6-(3-Fluoro-2-methylphenyl)-N-hydroxy-4,5,6,7-tetrahydrobenzo[d]thiazole-6-carboxamide], for which the IC50 in assay [1] is 1000 nM; in assay [2], more than 50000 nM; in assay [3] (setting [4]), 1500 nM.

As to `Cc1c(F)cccc1C1(C(=O)NO)Cc2nc(-c3ccccc3F)sc2C1` (single isomer, unassigned) [Example 62, E2-(abs)-5-(3-fluoro-2-methylphenyl)-2-(2-fluorophenyl)-N-hydroxy-5,6-dihydro-4H-cyclopenta[d]thiazole-5-carboxamide], the IC50 in assay [1] is 193 nM; in assay [2] it was more than 50000 nM; in assay [3] (Lys-TFA substrate) it was 49 nM.

On to `Cc1c(F)cccc1[C@]1(C(=O)NO)Cc2cnn(-c3ccc(F)cc3)c2C1` [Example 5, (S)-5-(3-Fluoro-2-methylphenyl)-1-(4-fluorophenyl)-N-hydroxy-1,4,5,6-tetrahydrocyclopenta[c]pyrazole-5-carboxamide], for which the half-maximal inhibitory concentration (IC50) was 53 nM in assay [1], more than 50000 nM in assay [2] and 99 nM in assay [3] (setting [4]).

`Cc1cnccc1-n1ncc2c1C[C@](C(=O)NO)(c1cccc(F)c1C)C2` [Example 26, (S)-5-(3-Fluoro-2-methylphenyl)-N-hydroxy-1-(3-methylpyridin-4-yl)-1,4,5,6-tetrahydrocyclopenta[c]pyrazole-5-carboxamide]: the IC50 was 57 nM in assay [1], more than 50000 nM in assay [2] and 71 nM in assay [3] (setting [4]).

For the compound `Cc1c(F)cccc1[C@@]1(C(=O)NO)Cc2cnn(-c3ccccc3)c2C1` [Example 30, (R)-5-(3-Fluoro-2-methylphenyl)-N-hydroxy-1-phenyl-1,4,5,6-tetrahydrocyclopenta[c]pyrazole-5-carboxamide], the IC50 is 1000 nM in assay [1], more than 50000 nM in assay [2] and 1700 nM in assay [3] (setting [4]).

Turning to `Cc1cccc(-n2ncc3c2C[C@](C(=O)NO)(c2cccc(F)c2C)C3)c1` [Example 24, (S)-5-(3-Fluoro-2-methylphenyl)-N-hydroxy-1-(m-tolyl)-1,4,5,6-tetrahydrocyclopenta[c]pyrazole-5-carboxamide], the IC50 is 28 nM in assay [1], more than 50000 nM in assay [2] and 64 nM in assay [3] (setting [4]).

On to `Cc1c(F)cccc1C1(C(=O)NO)CCc2nc(C3CC3)ncc2C1` (stereo not drawn) [Example 46, 2-Cyclopropyl-6-(3-fluoro-2-methylphenyl)-N-hydroxy-5,6,7,8-tetrahydroquinazoline-6-carboxamide], for which the IC50 is 1600 nM in assay [1], more than 50000 nM in assay [2] and 760 nM in assay [3] (setting [4]).

With `Cc1c(F)cccc1[C@]1(C(=O)NO)CCc2c1cnn2C1CC1` [Example 59, (R)-1-cyclopropyl-4-(3-fluoro-2-methylphenyl)-N-hydroxy-1,4,5,6-tetrahydrocyclopenta[c]pyrazole-4-carboxamide], the IC50 in assay [1] is 100 nM; in assay [2], more than 50000 nM; in assay [3] (setting [4]) it was 720 nM.
